Measurements: publication PMC11277004, “Di- and Triselenoesters—Promising Drug Candidates for the Future Therapy of Triple-Negative Breast Cancer” (International Journal of Molecular Sciences, 2024)

Assays:
Assay type in all cases: cell-based, human
[1] = test system: MCF-7 and MDA-MB-231 breast cancer cells; assay: Western immunoblot of Akt and AMPK; conditions: 0.5 and 1 μM, 24 h
Protocol: (§1) Protein concentrations in the samples were determined using the Lowry method. Samples were prepared containing equal amounts of protein (30 μg/lane) and an appropriate amount of Laemmli buffer (120 mM Tris-HCl, 20% glycerol, 0.4% SDS, and 0.02% bromophenol blue, pH 6.8) containing 100 mM 1,4-dithiothreitol (DTT; Roche, Basel, Switzerland). Samples were denatured at 95 °C for 10 min. The proteins were separated using the SDS-PAGE method described by Laemmli. Proteins were separated on 12% SDS-PAGE gels. […] Transfer conditions were 250 mA, at 4-8 °C, overnight in freshly prepared Towbin buffer. Membranes were blocked with 5% non-fat dried milk (Santa Cruz Biotechnology, Dallas, Texas, USA) in TBS-T (20 mM Tris, 150 mM NaCl, 0.1% Tween-20, pH 7.6) for 1 h at room temperature with gentle shaking. After the blocking step, membranes were washed four times with TBS-T (4 × 15 min) and incubated with primary monoclonal antibodies (against β-actin, p53 (both from Santa Cruz Biotechnology, Dallas, TX, USA), Akt, AMPK (both from BD Transduction Laboratories, San Jose, CA, USA), Bax, caspase 7, and caspase 9 (all from Cell Signaling Technology, Danvers, MA, USA)). Membranes were incubated with primary antibodies overnight at 4 °C. […]

[2] = test system: MCF-7 and MDA-MB-231 breast cancer cells; assay: Autophagy induction, summary statement over cell lines; conditions: vs EDAG-8; 0.5 and 1 µM, 24 h
Protocol: The effects of the novel selenoesters and a reference compound (cisplatin) at concentrations of 0.5 and 1 µM (after 24 h) on the activation of the autophagy process in MCF-7, MDA-MB-231, and MCF-10A cells were evaluated utilizing the Autophagy Assay kit, Red (ImmunoChemistry Technologies, Bloomington, MN, USA) via flow cytometry (flow cytometer from BD FACSCanto II, BD Biosciences Systems, San Jose, CA, USA). The entire assay was performed according to the manufacturer’s instructions. After drug treatment, unfixed cells were washed and resuspended in PBS at a concentration of 5 × 10^5 cells/mL. Then, 490 µL each of the cell suspension was taken, transferred to test tubes, and 10 µL of Autophagy Probe, Red solution (previously diluted 1:5 in PBS) was added and incubated (30 min, 37 °C, in the dark). After incubation, the cells were washed and resuspended in cellular assay buffer, before finally adding fixative at a ratio of 1:5 (v/v). After this step, the prepared samples were immediately measured using a flow cytometer (BD FACSCanto II; 10,000 events measured), and the percentage of cells with an occurring autophagy process was calculated using the FACSDiva 6.0 software (both from BD Biosciences Systems, San Jose, CA, USA). The equipment calibration was performed using the BD Cytometer Setup and Tracking Beads (BD Biosciences, San Diego, CA, USA).

[3] = test system: MCF-7 and MDA-MB-231 breast cancer cells; assay: Western immunoblot of Bax, caspase 7 and 9, p53; conditions: 0.5 and 1 μM, 24 h
Protocol: as §1

[4] = test system: MCF-10A normal breast epithelial cells; assay: Apoptosis induction, annexin V-FITC/PI flow cytometry, MCF-10A; conditions: especially at 1 µM, 24 h
Protocol: The FITC Annexin V Apoptosis Detection Kit II (BD Pharmingen, San Diego, CA, USA) and a flow cytometer (BD FACSCanto II, BD Biosciences Systems, San Jose, CA, USA) were used in this evaluation. The assay was performed according to the manufacturer’s instructions. Flow cytometer calibration was performed by preparing two controls—a positive and a negative control. […] The negative control was cells that were not treated with any of the proapoptotic agents. First, in the cells treated with the tested compounds as well as the controls, the medium was removed, and the cells were washed twice with cold PBS. Subsequently, the cells were resuspended in the binding buffer included in the kit at a concentration of 1 × 10^6 cells/mL. From each sample, 100 µL of cell suspension was taken and transferred to test tubes, to which 5 µL each of FITC annexin V and propidium iodide (PI) were then added. The contents of the test tubes were gently vortexed and incubated for 15 min at room temperature, protected from light. After the required time, the contents of the test tubes were made up to 500 µL with binding buffer and immediately analyzed in a flow cytometer (10,000 events measured). After the flow cytometer readout, the results were analyzed using the FACSDiva 6.0 software (BD Biosciences Systems, San Jose, CA, USA). […]

## N.N.[Cl][Pt][Cl] [Cisplatin, reference compound]
[1]
  expression of Akt and AMPK (Western blot, in words): did not significantly affect

## CC(=O)C[Se]C(=O)c1ccc(C(=O)[Se]CC(C)=O)cc1 [EDAG-1, Se,Se-bis(2-oxopropyl) benzene-1,4-bis(carboselenoate)]
[2]
  fold weaker pro-autophagic activity compared to the most active derivative: approximately 2 fold
[3]
  expression of Bax, caspase 7 and 9, p53 (Western blot, in words): slightly weaker effect

## CC(=O)C[Se]C(=O)c1cc(C(=O)[Se]CC(C)=O)cc(C(=O)[Se]CC(C)=O)c1 [EDAG-8, Se,Se,Se-tris-(2-oxopropyl) benzene-1,3,5-tris-(carboxyselenoate)]
[4]
  necrotic cells (in words): increase in the number of necrotic cells
[3]
  expression of Bax, caspase 7 and 9, p53 (Western blot, in words): most active
[1]
  expression of Akt and AMPK (Western blot, in words): most active
